From patent US10829796B2, “Bacteria identification and antimicrobial susceptibility test” (priority 2015, dated 2020)

Legend:
Streptococcus uberis = assay: Group D Streptococci identification, esculin/ferric citrate in TSB (blackening = growth), bacteria in milk; assay type: cell-based; settings: TSB containing 0.5% esculin and 0.25% ferric citrate + 80 uL spiked milk; 100 ug/ml aztreonam and/or 0.5 mg/mL phenol red
Experimental: By way of illustration, the same experiment was conducted as above, only this time using clinical milk samples obtained from a bovine animal suspect of being infected with mastitis.
However, Applicant has discovered that increased amounts of esculin and ferric citrate may be used in milk derived clinical samples. For example, at concentrations of at least 2% esculin and 1% ferric citrate, the growth of Streptococcus uberis is not inhibited.
Note, in the experiments above, the clinical sample tested was milk obtained from a bovine animal suspected of being infected by mastitis. If a non-milk clinical sample were to be tested, then inclusion of a stabilizing agent (e.g. milk in the form of a liquid or powder) would be required in order to suppress the growth inhibitory effect of esculin and ferric citrate at the higher concentrations used according to this invention.
Applicant further discovered that TSB containing 0.5% esculin and 0.25% ferric citrate and 80 uL of spiked Streptococcus uberis milk sample which also contained 100 ug/ml aztreonam concentration (antibiotic which has activity against many gram-bacteria such as E. coli) and/or in combination with 0.5 mg/mL phenol red led to easy detectable colour changes. No inhibition of Streptococcus uberis due to phenol red or aztreonam was detected.

[1] = test system: bacteria samples 4c, 4e, 5c, 5e, 6d; assay: Antibiotic susceptibility testing (colour of media), plate configuration #3, reference colours at 0 hours for bacteria samples 4c, 4e, 5c, 5e, 6d; assay type: cell-based; settings: T~0 h
[2] = Benzyl Penicillin or Cloxacillin 1 μg/ml
[3] = Benzyl Penicillin or Cloxacillin 10 μg/ml
[4] = Benzyl Penicillin or Cloxacillin 100 μg/ml
[5] = Benzyl Penicillin or Cloxacillin 1,000 μg/ml
[6] = Benzyl Penicillin or Cloxacillin 10,000 μg/ml

Compound | Inhibition of Streptococcus uberis (Streptococcus uberis) | Colour of media in each well ([1]; Aztreonam 0.001 μg/ml) | Colour of media in each well ([1]; Aztreonam 0.01 μg/ml) | Colour of media in each well ([1]; Aztreonam 0.1 μg/ml) | Colour of media in each well ([1]; Aztreonam 1 μg/ml) | Colour of media in each well ([1]; Aztreonam 10 μg/ml) | Colour of media in each well [1, 2] | Colour of media in each well [1, 3] | Colour of media in each well [1, 4] | Colour of media in each well [1, 5] | Colour of media in each well [1, 6]
C[C@H]1[C@H](NC(=O)/C(=N\OC(C)(C)C(=O)O)c2csc(N)n2)C(=O)N1S(=O)(=O)O [aztreonam] | No inhibition | red | red | red | red | red |  |  |  |  | 
CC1(C)S[C@@H]2[C@H](NC(=O)Cc3ccccc3)C(=O)N2[C@H]1C(=O)O [benzyl penicillin] |  |  |  |  |  |  | Red | Red | Red | Red | Red
Cc1onc(-c2ccccc2Cl)c1C(=O)N[C@@H]1C(=O)N2[C@@H]1SC(C)(C)[C@@H]2C(=O)O [cloxacillin] |  |  |  |  |  |  | red | red | red | red | red
